In experiment [1] the test system is HL-60. In words: Antiproliferative activity against human HL60 cells after 48 hrs by MTS assay. The class given is functional, cell-based. Particulars: HL-60, 48 h. Background: Formazan colour is commonly taken as a measure of viable cells.
A further experiment concerns HCT-116. Nature of the experiment: Antiproliferative activity against human HCT116 cells after 48 hrs by MTS assay. The class given is functional, cell-based. Particulars: HCT-116, 48 h.
Another experiment has as its system HeLa. Nature of the experiment: Antiproliferative activity against human HeLa cells after 48 hrs by MTS assay.
In another experiment the target is T1, Dihydrofolate reductase (Homo sapiens, UniProt P00374).
T1 sequence (P00374 whole entry): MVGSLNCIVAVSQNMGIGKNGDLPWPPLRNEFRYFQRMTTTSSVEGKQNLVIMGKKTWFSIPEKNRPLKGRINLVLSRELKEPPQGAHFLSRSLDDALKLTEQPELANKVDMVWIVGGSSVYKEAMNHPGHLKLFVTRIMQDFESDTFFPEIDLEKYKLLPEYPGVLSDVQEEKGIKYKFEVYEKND
In words: Inhibition of recombinant human DHFR using dihydrofolate as substrate after 15 mins in presence of NADPH.

The subject of experiment [2] is HL-60. In words: Cell cycle arrest in human HL60 cells assessed as accumulation at G1 phase at 1 uM after 24 hrs by propidium iodide staining based flow cytometry (reference value: 28.69%). The class given is functional.
Experiment [3] relates to HL-60. In words: Cell cycle arrest in human HL60 cells assessed as accumulation at S phase at 1 uM after 24 hrs by propidium iodide staining based flow cytometry (reference value: 57.76%). The class given is functional. (In flow cytometry, cells or beads pass a laser one at a time.)
Experiment [4] has as its system HL-60. In words: Cell cycle arrest in human HL60 cells assessed as accumulation at G2 phase at 1 uM after 24 hrs by propidium iodide staining based flow cytometry (reference value: 13.56%). It is filed as functional.
Experiment [5] relates to HL-60. Nature of the experiment: Cell cycle arrest in human HL60 cells assessed as accumulation at G1 phase at 4 uM after 24 hrs by propidium iodide staining based flow cytometry (reference value: 28.69%). The class given is functional.
Experiment [6] relates to HL-60. In words: Cell cycle arrest in human HL60 cells assessed as accumulation at S phase at 4 uM after 24 hrs by propidium iodide staining based flow cytometry (reference value: 57.76%). It is filed as functional.
Experiment [7] concerns HL-60. In words: Cell cycle arrest in human HL60 cells assessed as accumulation at G2 phase at 4 uM after 24 hrs by propidium iodide staining based flow cytometry (reference value: 13.56%). It is filed as functional.
Experiment [8] deals with HL-60. Nature of the experiment: Induction of apoptosis in human HL60 cells assessed as necrotic cells at 0.1 uM after 24 hrs by Annexin V-FITC/propidium iodide staining based flow cytometry (reference value: 2.36%). It is filed as functional.
For experiment [9], the system named is HL-60. In words: Induction of apoptosis in human HL60 cells assessed as late apoptotic cells at 0.1 uM after 24 hrs by Annexin V-FITC/propidium iodide staining based flow cytometry (reference value: 4.84%). The class given is functional.
Experiment [10] has as its system HL-60. In words: Induction of apoptosis in human HL60 cells assessed as live cells at 0.1 uM after 24 hrs by Annexin V-FITC/propidium iodide staining based flow cytometry (reference value: 90.7%). The class given is functional.
In experiment [11] the test system is HL-60. In words: Induction of apoptosis in human HL60 cells assessed as early apoptotic cells at 0.1 uM after 24 hrs by Annexin V-FITC/propidium iodide staining based flow cytometry (reference value: 2.09%). The class given is functional.
The test system of experiment [12] is HL-60. Nature of the experiment: Induction of apoptosis in human HL60 cells assessed as necrotic cells at 0.2 uM after 24 hrs by Annexin V-FITC/propidium iodide staining based flow cytometry (reference value: 2.36%). It is filed as functional.
The subject of experiment [13] is HL-60. Nature of the experiment: Induction of apoptosis in human HL60 cells assessed as late apoptotic cells at 0.2 uM after 24 hrs by Annexin V-FITC/propidium iodide staining based flow cytometry (reference value: 4.84%). The class given is functional.
Experiment [14] concerns HL-60. Nature of the experiment: Induction of apoptosis in human HL60 cells assessed as live cells at 0.2 uM after 24 hrs by Annexin V-FITC/propidium iodide staining based flow cytometry (reference value: 90.7%). It is filed as functional.
For experiment [15], the system named is HL-60. In words: Induction of apoptosis in human HL60 cells assessed as early apoptotic cells at 0.2 uM after 24 hrs by Annexin V-FITC/propidium iodide staining based flow cytometry (reference value: 2.09%). The class given is functional.
For experiment [16], the system named is HL-60. Nature of the experiment: Upregulation of DHFR protein level in human HL60 cells after 48 hrs by Western blot method. The class given is functional, cell-based.
The subject of experiment [17] is HL-60. Nature of the experiment: Upregulation of DHFR protein level in human HL60 cells at 0.125 uM after 48 hrs by Western blot method relative to control. The class given is functional. In general terms: A western blot detects proteins with antibodies after separation by electrophoresis.
Experiment [18] deals with HL-60. Nature of the experiment: Upregulation of DHFR protein level in human HL60 cells at 0.25 uM after 48 hrs by Western blot method relative to control. It is filed as functional.
In experiment [19] the test system is HL-60. In words: Upregulation of DHFR protein level in human HL60 cells at 0.5 uM after 48 hrs by Western blot method relative to control. It is filed as functional.

Some results are limits rather than exact numbers.

As to `Nc1nc(N)c2nc(CCCCCc3ccccc3)ccc2n1`, the concentration for half-maximal inhibition (IC50) (as a rule, the concentration at which inhibition is half-maximal) with HL-60 [1] turned out to be 0.78 µM; with HCT-116, 11.7 µM; with HeLa, 40.8 µM; at Dihydrofolate reductase it was 0.7 µM.
For `Nc1nc(N)c2nc(/C=C/Cc3ccccc3)ccc2n1` the same measures were 0.35 µM, 13.3 µM, 25.3 µM and 0.59 µM.
Taken in the same sequence, the figures for `Nc1nc(N)c2nc(/C=C/CCCc3ccccc3)ccc2n1` were 1.31 µM, 15.3 µM, 17.6 µM and 2.1 µM.
Turning to `Nc1nc(N)c2nc(/C=C/C(=O)c3ccccc3)ccc2n1`, the IC50 is 1.5 µM in the experiment with HL-60 [1], 10.2 µM in the experiment on HCT-116, 3.28 µM in the experiment with HeLa and greater than 100 µM on Dihydrofolate reductase.
Taken in the same sequence, the figures for `Nc1nc(N)c2nc(CCC(=O)CCc3ccccc3)ccc2n1` were 3.74 µM, 32.8 µM, 77.5 µM and 7.93 µM.
For `Nc1nc(N)c2nc(/C=C/C=C/c3ccccc3)ccc2n1` the same measures were 6.79 µM, 17.7 µM, 14.9 µM and 12.3 µM.
Take `Nc1nc(N)c2nc(CCC(O)c3ccccc3)ccc2n1` (stereo not drawn): the 50% inhibitory concentration (IC50) with HL-60 [1] worked out at 1.52 µM; in the experiment on HCT-116, 17.3 µM; with HeLa it was 74.8 µM; at Dihydrofolate reductase, 2.73 µM.
Taken in the same sequence, the figures for `Nc1nc(N)c2nc(/C=C/C(=O)/C=C/c3ccccc3)ccc2n1` were 1.08 µM, 12 µM, 3.7 µM and 70.5 µM.
For `Nc1nc(N)c2nc(CCCCc3ccccc3)ccc2n1` the same measures were 0.59 µM, 11 µM, 47.1 µM and 0.61 µM.
Turning to `CN(Cc1cnc2nc(N)nc(N)c2n1)c1ccc(C(=O)N[C@@H](CCC(=O)O)C(=O)O)cc1` [METHOTREXATE], the half-maximal inhibitory concentration (IC50) in the experiment with HL-60 [1] worked out at 0.025 µM; in the experiment with HCT-116 it was 0.13 µM.
As to `Nc1nc(N)c2nc(CCC(=O)c3ccccc3)ccc2n1`, the half-inhibitory concentration (IC50) amounted to 8.12 µM with HL-60 [1], 20.9 µM in the experiment on HCT-116, 85.6 µM with HeLa and 11.2 µM on Dihydrofolate reductase.
For `Nc1nc(N)c2nc(CCCc3ccccc3)ccc2n1`, the half-inhibitory concentration (IC50) in the experiment with HL-60 [1] is 0.2 µM; in the experiment with HCT-116, 9.56 µM; with HeLa, 49.1 µM; at Dihydrofolate reductase, 0.06 µM. For the same compound, the Activity in the experiment on HL-60 [2] was 24.26%; with HL-60 [3] it was 62.39%; in the experiment on HL-60 [4] it was 13.35%; in the experiment on HL-60 [5] it was 19.34%; in the experiment on HL-60 [6], 80.66%; in the experiment with HL-60 [7], 0%. For the same compound, the Activity came out at 2.21% in the experiment with HL-60 [8]; 6.69% with HL-60 [9]; 87.64% in the experiment with HL-60 [10]; 3.45% in the experiment with HL-60 [11]; 5.96% with HL-60 [12]; 11.06% in the experiment with HL-60 [13]. The Activity in the experiment with HL-60 [14] was 76.35%; with HL-60 [15] it was 6.63%; in the experiment on HL-60 [16] it was “Dose-dependent effect”. The “fold change (FC)” value in the experiment with HL-60 [17] is listed as 1.03; in the experiment with HL-60 [18] it was 1.62; in the experiment on HL-60 [19], 1.98.
For `Nc1nc(N)c2nc(CCC(O)CCc3ccccc3)ccc2n1` (stereo not drawn), the half-maximal inhibitory concentration (IC50) with HL-60 [1] worked out at 1.23 µM; with HCT-116, 20.6 µM; in the experiment with HeLa, 65.1 µM; at Dihydrofolate reductase, 2.53 µM.

The values are drawn from ChEMBL document CHEMBL4219247, “Inhibitors of dihydrofolate reductase as antitumor agents: design, synthesis and biological evaluation of a series of novel nonclassical 6-substituted pyrido[3,2-d]pyrimidines with a three- to five-carbon bridge” (Bioorg Med Chem, 2018).
